Holding throughout (type): cell-based, human
One experiment deals with CCRF-CEM. The experiment in a line: NCI in vitro anti-tumor screening, 1 μM, SRB. The conditions noted are these: c = 1 μM; CCRF-CEM (Leukemia); two days.
The next experiment relates to HL-60(TB). Put plainly: NCI in vitro anti-tumor screening, 1 μM, SRB. Particulars: c = 1 μM; HL-60(TB) (Leukemia); two days.
In a further experiment the test system is MOLT-4. Put plainly: NCI in vitro anti-tumor screening, 1 μM, SRB. Particulars: c = 1 μM; MOLT-4 (Leukemia); two days.
The next experiment concerns RPMI-8226. Put plainly: NCI in vitro anti-tumor screening, 1 μM, SRB. The conditions noted are these: c = 1 μM; RPMI-8226 (Leukemia); two days.
A further experiment relates to SR. Put plainly: NCI in vitro anti-tumor screening, 1 μM, SRB. The conditions noted are these: c = 1 μM; SR (Leukemia); two days.
The next experiment has as its system K-562. The experiment in a line: NCI in vitro anti-tumor screening, 1 μM, SRB. The conditions noted are these: c = 1 μM; K-562 (Leukemia); two days.
In the next experiment the test system is LOX IMVI. Put plainly: NCI in vitro anti-tumor screening, 1 μM, SRB. Particulars: c = 1 μM; LOX IMVI (Melanoma); two days.
The test system of the next experiment is MALME-3M. The experiment in a line: NCI in vitro anti-tumor screening, 1 μM, SRB. Particulars: c = 1 μM; MALME-3M (Melanoma); two days.
For a further experiment, the system named is M14. Put plainly: NCI in vitro anti-tumor screening, 1 μM, SRB. Particulars: c = 1 μM; M14 (Melanoma); two days.
Another experiment deals with SK-MEL-2. The experiment in a line: NCI in vitro anti-tumor screening, 1 μM, SRB. The conditions noted are these: c = 1 μM; SK-MEL-2 (Melanoma); two days.
A further experiment relates to SK-MEL-28. The experiment in a line: NCI in vitro anti-tumor screening, 1 μM, SRB. The conditions noted are these: c = 1 μM; SK-MEL-28 (Melanoma); two days.
Another experiment concerns SK-MEL-5. The experiment in a line: NCI in vitro anti-tumor screening, 1 μM, SRB. Particulars: c = 1 μM; SK-MEL-5 (Melanoma); two days.
The test system of a further experiment is UACC-257. The experiment in a line: NCI in vitro anti-tumor screening, 1 μM, SRB. The conditions noted are these: c = 1 μM; UACC-257 (Melanoma); two days.
For a further experiment, the system named is UACC-62. The experiment in a line: NCI in vitro anti-tumor screening, 1 μM, SRB. Particulars: c = 1 μM; UACC-62 (Melanoma); two days.
Another experiment has as its system MCF7. Put plainly: NCI in vitro anti-tumor screening, 1 μM, SRB. The conditions noted are these: c = 1 μM; MCF7 (Breast cancer); two days.
A further experiment concerns MDA-MB-231/ATCC. Put plainly: NCI in vitro anti-tumor screening, 1 μM, SRB. The conditions noted are these: c = 1 μM; MDA-MB-231/ATCC (Breast cancer); two days.
The test system of a further experiment is BT-549. Put plainly: NCI in vitro anti-tumor screening, 1 μM, SRB. The conditions noted are these: c = 1 μM; BT-549 (Breast cancer); two days.
Another experiment concerns T-47D. Put plainly: NCI in vitro anti-tumor screening, 1 μM, SRB. Particulars: c = 1 μM; T-47D (Breast cancer); two days.
The subject of another experiment is MDA-MB-468. The experiment in a line: NCI in vitro anti-tumor screening, 1 μM, SRB. The conditions noted are these: c = 1 μM; MDA-MB-468 (Breast cancer); two days.
The next experiment has as its system Leukemia cell lines. Put plainly: NCI in vitro anti-tumor screening, 1 μM, mean of leukemia lines. Particulars: c = 1 μM.
The next experiment concerns Melanoma cell lines. The experiment in a line: NCI in vitro anti-tumor screening, 1 μM, mean of melanoma lines. Particulars: c = 1 μM.
Another experiment concerns Breast cancer cell lines. The experiment in a line: NCI in vitro anti-tumor screening, 1 μM, mean of breast cancer lines. Particulars: c = 1 μM.
The subject of experiment [1] is 60 tumor cell lines. The experiment in a line: NCI in vitro anti-tumor screening, 1 μM, all 60 cell lines. Particulars: c = 1 μM; for growth inhibitory effect (in words): leukemia, melanoma, breast cancer lines of Tables I and II.
In experiment [2] the test system is 60 tumor cell lines. Put plainly: NCI 5 dose assay, dose-response (GI50, MG_MID). Particulars: for GI50: Homo sapiens, calculated from mean graph midpoint; for GI50 / MG_MID (mean-graph midpoint, mean of the logarithms GI50 values): all 60 cell lines; for MG_MID (mean-graph midpoint, mean of the logarithms GI50 values): 5 concentrations. The text has this: It has been shown in the experiments carried out according to the present invention that the above-described phenanthroline derivates have antitumoral properties. Due to their structural similarity it is to be assumed that they have also antimicrobial, antifungal, antiviral and anti-inflammatory properties like the benzo[c]phenanthridines. For investigating the pharmacological properties the compounds of general formulas I and II, as well as compounds of the substance class III were investigated in an “in vitro anti-tumor screening” of the National Cancer Institute (NCI), Bethesda, Md., USA. 60 different human pathogenic tumor cell lines were tested, which originate from nine cancer types (leukemia, non-small cell lung carcinoma, colon cancer, CNS cancer, melanoma, ovarian cancer, renal cancer, prostate cancer, breast cancer). For determining the efficacy, the tumor cells are exposed to the compounds for two days and thereafter the growth inhibition is indirectly determined through the determination of the protein biomass with sulforhodamine B (SRB). Untreated cultures serve as reference.
Furthermore, it can be seen from tables I and II that the here tested phenanthrolin derivatives according to the present invention have selectivities for certain tumor types. The most marked growth inhibitory effect is for tumor cells of leukemia. Furthermore, a degree of selectivity for tumor cells of melanoma and mamma carcinoma (breast cancer) can be seen. […] The GI50 (growth inhibition 50%) describes here the concentration of the test substance required for inhibiting cell growth by 50%. […] Develop. Res., 34, (1995) 91-109,]
Exemplary for 6-amino-11-(3-bromophenyl)-11,12-dihydropyrido[3,4-c][1,9] phenanthrol are the dose-response curves shown in FIGS. 1 to 9. The nine different Figures include the various types of cancer. The percentage of growth, depending on the concentration of the compound is plotted (as log10 of the molar concentrations). The individual curves for each type of cancer are different cell lines of this type of cancer, which appear as legends in their usual abbreviations. Horizontal lines in the Figures denote percent growth +100, +50, 0, −50, −100. 100% growth means e.g. no difference to growth after two days without added substance.

A further experiment relates to HS-578T. Put plainly: NCI in vitro anti-tumor screening, 1 μM, SRB. Particulars: c = 1 μM; HS-578T (Breast cancer); two days.

Take `Nc1nc2c3cnccc3cc(-c3ccco3)c2c2ccncc12`: the Percentage cell growth is 12.4% with CCRF-CEM; 13.9% in the experiment on HL-60(TB); −0.9% in the experiment with MOLT-4; 62.7% in the experiment with RPMI-8226; 7.8% in the experiment on SR; 51.6% with K-562. Moreover, the Percentage cell growth is listed as 2.3% in the experiment with LOX IMVI; 59.7% in the experiment with MALME-3M; 37.0% in the experiment with M14; 91.8% with SK-MEL-2; 42.4% in the experiment with SK-MEL-28; 20.0% with SK-MEL-5. For the same compound, the Percentage cell growth was 69.8% with UACC-257; 41.0% in the experiment on UACC-62; 25.0% in the experiment with MCF7; 74.9% in the experiment on MDA-MB-231/ATCC; 16.2% in the experiment with BT-549; 48.4% in the experiment on T-47D. Moreover, the Percentage cell growth in the experiment on MDA-MB-468 is 35.6%. Further, the “Percentage cell growth, Arithmetic mean” value in the experiment with Leukemia cell lines came to 24.6%; in the experiment on Melanoma cell lines, 45.5%; with Breast cancer cell lines it was 40.0%. For the same compound, the “Percentage cell growth, Arithmetic mean of all 60 cell lines” value in the experiment on 60 tumor cell lines [1] came out at 39.1%. In the experiment with 60 tumor cell lines [1], the “growth inhibitory effect (in words)” value is “good cytotoxic effects”.
For `Nc1cc2c(c3cnccc13)N(c1cccc(Cl)c1)Cc1cnccc1-2` [P16, 6-amino-11-(3-chlorophenyl)-11,12 dihydropyrido-[3,4-c][1,9]phenanthroline], in the experiment on 60 tumor cell lines [2], the 50% growth inhibitory concentration (GI50) (in general, the concentration at which growth is held to half of that of the control) was 3.8 µM and the “MG_MID (mean-graph midpoint, mean of the logarithms GI50 values)” value is −5.42.
Take `Nc1cc2c(c3cnccc13)N(c1cccc(Br)c1)Cc1cnccc1-2` [P5, 6-amino-11-(3-bromophenyl)-11,12-dihydro-pyrido-[3,4-c][1,9]phenanthroline]: in the experiment with 60 tumor cell lines [2], the 50% growth inhibitory concentration (GI50) is 2.69 µM and the “MG_MID (mean-graph midpoint, mean of the logarithms GI50 values)” value is given as −5.57. Further, the “percent growth versus concentration (dose-response curves, FIGS. 1 to 9)” value in the experiment with 60 tumor cell lines [2] (nine cancer types, 5 dose assay) is “with increasing concentrations of the substance, the percent growth decreases”.
`Nc1cc2c(c3cnccc13)NCc1cnccc1-2` [P4, 6-amino-11,12-dihydropyrido[3,4-c][1,9]phenanthroline]: in the experiment on 60 tumor cell lines [2], the GI50 was 8.13 µM and the “MG_MID (mean-graph midpoint, mean of the logarithms GI50 values)” value is listed as −5.09.
The matching figures for `COc1cc2c(ccc3c4cc(OC)c(OC)cc4c[n+](C)c23)cc1O` [Fagaronine, reference compound]: 9.48 µM and −5.00.
As for `Nc1cc2c(c3cnccc13)N(c1ccc(Cl)c(Cl)c1)Cc1cnccc1-2` [P26, 6-amino-11-(3,4-di-chlorophenyl)-11,12-dihydropyrido-[3,4-c][1,9]phenanthroline], in the experiment with 60 tumor cell lines [2], the 50% growth inhibitory concentration (GI50) was 6.02 µM and the “MG_MID (mean-graph midpoint, mean of the logarithms GI50 values)” value is −5.22.
In the case of `COc1cc(-c2cc3ccncc3c3nc(N)c4cnccc4c23)cc(OC)c1OC`, the Percentage cell growth in the experiment with CCRF-CEM was 7.2%; with HL-60(TB), −0.9%; with MOLT-4, −8.9%; in the experiment with RPMI-8226 it was 33.5%; with SR, 13.1%; in the experiment on K-562, 29.9%. Further, the Percentage cell growth is −30.4% in the experiment on LOX IMVI; 35.5% in the experiment with MALME-3M; 9.5% in the experiment with M14; 65.3% in the experiment on SK-MEL-2; 41.5% in the experiment with SK-MEL-28; 2.2% in the experiment on SK-MEL-5. Besides, the Percentage cell growth is 30.9% with UACC-257; 22.8% with MCF7; −2.5% in the experiment with HS-578T; 8.31% with BT-549; 36% with T-47D; −23.6% in the experiment with MDA-MB-468. In addition, the “Percentage cell growth, Arithmetic mean” value is listed as 12.3% in the experiment on Leukemia cell lines, 22.1% in the experiment on Melanoma cell lines and 8.2% in the experiment with Breast cancer cell lines. Besides, the “Percentage cell growth, Arithmetic mean of all 60 cell lines” value in the experiment with 60 tumor cell lines [1] came out at 16.8%. Besides, in the experiment on 60 tumor cell lines [1], the “growth inhibitory effect (in words)” value is “best results”.
As to `COc1cccc(-c2cc3ccncc3c3nc(N)c4cnccc4c23)c1OC`, the Percentage cell growth came to 74.9% with CCRF-CEM; 118.7% in the experiment with HL-60(TB); 90.1% with MOLT-4; 96.8% in the experiment with RPMI-8226; 83.5% in the experiment with SR; 88.8% with K-562. In addition, the Percentage cell growth with LOX IMVI turned out to be 89.3%; with MALME-3M, 123.8%; in the experiment on M14 it was 94.8%; with SK-MEL-2 it was 117.3%; with SK-MEL-28, 119.5%; in the experiment with SK-MEL-5 it was 86.3%. Moreover, the Percentage cell growth was determined as 126.3% with UACC-257; 99.1% in the experiment on UACC-62; 89.9% with MCF7; 90.8% with MDA-MB-231/ATCC; 90.5% in the experiment on HS-578T; 95.0% in the experiment with BT-549. The Percentage cell growth is recorded as 97.4% in the experiment on T-47D and 81.5% with MDA-MB-468. The results for the “Percentage cell growth, Arithmetic mean” value in the experiment on Leukemia cell lines, in the experiment on Melanoma cell lines and with Breast cancer cell lines were 92.1%, 95.2% and 90.9%, respectively. In addition, the “Percentage cell growth, Arithmetic mean of all 60 cell lines” value in the experiment on 60 tumor cell lines [1] came to 98.0%. Further, in the experiment with 60 tumor cell lines [1], the “growth inhibitory effect (in words)” value was “disadvantageous”.
With `O=C1CC2=C(c3cnccc31)N(c1cccc(Br)c1)Cc1cnccc12` [P5-O, 11-(3-bromophenyl)-6-oxo-5,6,11,12-tetrahydropyrido[3,4-c][1,9]phenanthroline], in the experiment with 60 tumor cell lines [2], the concentration for 50% growth inhibition (GI50) is 8.51 µM and the “MG_MID (mean-graph midpoint, mean of the logarithms GI50 values)” value is on record as −5.07.
